Patent US9580463B2 (BRISTOL-MYERS SQUIBB COMPANY, priority 2013, dated 2017)
Like-named read-outs stand apart in the source and are kept apart here.

Tests used:
[1] = test system: HCV genotype 1a (H77 strain) replicon in HUH-7 cells; assay: HCV replicon luciferase reporter assay, genotype 1a; assay type: cell-based; conditions: Hepatitis C virus, 72 h, genotype 1a replicon, 3 days incubation, read-out: LE_1a (EC50, range)
Excerpt: (§1) An HCV replicon whole cell system was established as described by Lohmann V, Korner F, Koch J, Herian U, Theilmann L, Bartenschlager R., Science 285(5424):110-3 (1999) and modified to introduce a luciferase reporter, as first described by Krieger et al (Krieger N, Lohmann V, and Bartenschlager R, J. Virol. 75(10):4614-4624 (2001)). CDNA encoding a humanized form of the Renilla luciferase gene and a linker sequence fused directly to the 3′-end of the luciferase gene were introduced into the replicon construct using an Asc1 restriction site located in core, directly upstream of the neomycin marker gene. The adaptive mutation at position 1179 (serine to isoleucine) was also introduced (Blight K J, Kolykhalov, A A, Rice, C M, Science 290(5498):1972-1974). A stable cell line constitutively expressing this HCV replicon construct was generated by first linearizing plasmid DNAs with ScaI. RNA transcripts were synthesized in vitro using the T7 MegaScript transcription kit (Ambion, Austin, Tex.) according to manufacturer's directions. In vitro transcripts of the cDNA were transfected into the human hepatoma cell line, HUH-7. […] Resulting cell lines were characterized for positive and negative strand RNA production and protein production over time.
A stable HCV replicon luciferase reporter cell line representing the genotype 1a H77 strain (Yanagi M, Purcell R H, Emerson S U, et al. Transcripts from a single full-length cDNA clone of hepatitis C virus are infectious when directly transfected into the liver of a chimpanzee. Proc Natl Acad Sci USA 1997; 94(16):8738-8743) was generated as described previously for the genotype 1b (Con1) replicon luciferase cell line. The replicon construct was modified by introducing mutations were introduced into the genes encoding the NS3 helicase domain (proline replaced by leucine at position 1496) and NS5A (serine to isoleucine at position 2204) to improve replication in cell culture.
(§2) HCV replicon luciferase assays were developed to monitor the inhibitory effects of compounds described in the disclosure on HCV genotypes 1a and 1b viral replication. HUH-7 cells, constitutively expressing the HCV replicon, were grown in Dulbecco's Modified Eagle Media (DMEM) (Gibco-BRL) containing 10% Fetal calf serum (FCS) (Sigma) and 1 mg/mL G418 (Gibco-BRL). Compounds were serially diluted 3 folds in DMSO for a twenty-point titration and subsequently transferred to sterile 384-well tissue-culture treated plates (Corning cat #3571). The plates were then seeded with 50 μL of cells at a density of 3.0×10^3 cells/well in DMEM containing 4% FCS (final DMSO concentration at 0.5%). After 3 days incubation at 37° C., cells were analyzed for Renilla Luciferase activity using the EnduRen as substrate (Promega cat #E6485). The EnduRen substrate was diluted in DMEM and then added to the plates to a final concentration of 7.5 μM. The plates were incubated for 2 hrs at 37° C. and then read immediately for 30 seconds with Viewlux Imager (PerkinElmer) using a luminescence program. To assess cytotoxicity of compounds, CC50 values were generated by multiplexing the EnduRen-containing plates with Cell Titer-Blue (Promega, cat # G8082). Cell-Titer Blue (3 μL) was added to each well and incubated for 8 hrs at 37° C. The fluorescence signal from each well was read, with an excitation wavelength at 525/10 nm and an emission wavelength of 598/10 nm, using the Viewlux Imager.
(§3) The EC50 values for compounds were calculated by using a four-parameter logistic equation: y=A+((B−A)/(1+((C/x)^D))), where A and B denotes minimal and maximal % inhibition, respectively, C is the EC50, D is the hill slope and x represents compound concentration.

[2] = test system: HCV genotype 1b (Con1) replicon in HUH-7 cells; assay: HCV replicon luciferase reporter assay, genotype 1b; assay type: cell-based; conditions: Hepatitis C virus, 72 h, genotype 1b replicon, 3 days incubation
Excerpt: as §1, with “time. […]” for “time.”
as §2, §3

Row | Structure (SMILES) | EC50 [1] | EC50 ([2]; read-out: LE_1b (EC50, range)) | EC50 ([2]; read-out: LE_1b (EC50))
1 | COC[C@@H]1CCCC/C=C\[C@@H]2C[C@@]2(C(=O)NS(=O)(=O)C2(C)CC2)NC(=O)[C@@H]2C[C@@H](Oc3nccc4cc(OC)ccc34)CN2C(=O)[C@H]1NC(=O)OC(C)(C)C(F)(F)F [Compound 1001, 1,1,1-trifluoro-2-methylpropan-2-yl ((2R,6S,7R,13aS,14aR,16aS,Z)-2-((6-methoxyisoquinolin-1-yl)oxy)-7-(methoxymethyl)-14a-(((1-methylcyclopropyl)sulfonyl)carbamoyl)-5,16-dioxo-1,2,3,5,6,7,8,9,10,11,13a,14,14a,15,16,16a-hexadecahydrocyclopropa[e]pyrrolo[1,2-a][1,4]diazacyclopentadecin-6-yl)carbamate] | 1.01 to 5 nM | 0.51 to 1 nM | –
2 | COC[C@@H]1CCCC/C=C\[C@@H]2C[C@@]2(C(=O)NS(=O)(=O)C2(C)CC2)NC(=O)[C@@H]2C[C@@H](Oc3ncc(OC)c4ccccc34)CN2C(=O)[C@H]1NC(=O)OC(C)(C)C(F)(F)F [Compound 1002, 1,1,1-trifluoro-2-methylpropan-2-yl ((2R,6S,7R,13aS,14aR,16aS,Z)-2-((4-methoxyisoquinolin-1-yl)oxy)-7-(methoxymethyl)-14a-(((1-methylcyclopropyl)sulfonyl)carbamoyl)-5,16-dioxo-1,2,3,5,6,7,8,9,10,11,13a,14,14a,15,16,16a-hexadecahydrocyclopropa[e]pyrrolo[1,2-a][1,4]diazacyclopentadecin-6-yl)carbamate] | 0.51 to 1 nM | 0.1 to 0.5 nM | –
3 | COC[C@@H]1C[C@H](C)CC/C=C\[C@@H]2C[C@@]2(C(=O)NS(=O)(=O)C2CC2)NC(=O)[C@@H]2C[C@@H](Oc3ncc(OC)c4ccccc34)CN2C(=O)[C@H]1NC(=O)OC(C)(C)C [Compound 1003, tert-butyl ((2R,6S,7R,9R,13aS,14aR,16aS,Z)-14a-((cyclopropylsulfonyl)carbamoyl)-2-((4-methoxyisoquinolin-1-yl)oxy)-7-(methoxymethyl)-9-methyl-5,16-dioxo-1,2,3,5,6,7,8,9,10,11,13a,14,14a,15,16,16a-hexadecahydrocyclopropa[e]pyrrolo[1,2-a][1,4]diazacyclopentadecin-6-yl)carbamate] | 0.51 to 1 nM | 0.1 to 0.5 nM | –
4 | COC[C@@H]1C[C@@H](C)CC/C=C\[C@@H]2C[C@@]2(C(=O)NS(=O)(=O)C2CC2)NC(=O)[C@@H]2C[C@@H](Oc3ncc(OC)c4ccccc34)CN2C(=O)[C@H]1NC(=O)OC(C)(C)C [Compound 1004, tert-butyl ((2R,6S,7R,9S,13aS,14aR,16aS,Z)-14a-((cyclopropylsulfonyl)carbamoyl)-2-((4-methoxyisoquinolin-1-yl)oxy)-7-(methoxymethyl)-9-methyl-5,16-dioxo-1,2,3,5,6,7,8,9,10,11,13a,14,14a,15,16,16a-hexadecahydrocyclopropa[e]pyrrolo[1,2-a][1,4]diazacyclopentadecin-6-yl)carbamate] | 1.01 to 5 nM | 1.01 to 5 nM | –
5 | COC[C@@H]1C[C@H](C)CC/C=C\[C@@H]2C[C@@]2(C(=O)NS(=O)(=O)C2(C)CC2)NC(=O)[C@@H]2C[C@@H](Oc3nccc4cc(OC)ccc34)CN2C(=O)[C@H]1NC(=O)OC(C)(C)C [Compound 1005, tert-butyl ((2R,6S,7R,9R,13aS,14aR,16aS,Z)-2-((6-methoxyisoquinolin-1-yl)oxy)-7-(methoxymethyl)-9-methyl-14a-(((1-methylcyclopropyl)sulfonyl)carbamoyl)-5,16-dioxo-1,2,3,5,6,7,8,9,10,11,13a,14,14a,15,16,16a-hexadecahydrocyclopropa[e]pyrrolo[1,2-a][1,4]diazacyclopentadecin-6-yl)carbamate] | 1.01 to 5 nM | 0.1 to 0.5 nM | –
6 | COC[C@@H]1C[C@@H](C)CC/C=C\[C@@H]2C[C@@]2(C(=O)NS(=O)(=O)C2(C)CC2)NC(=O)[C@@H]2C[C@@H](Oc3nccc4cc(OC)ccc34)CN2C(=O)[C@H]1NC(=O)OC(C)(C)C [Compound 1006, tert-butyl ((2R,6S,7R,9S,13aS,14aR,16aS,Z)-2-((6-methoxyisoquinolin-1-yl)oxy)-7-(methoxymethyl)-9-methyl-14a-(((1-methylcyclopropyl)sulfonyl)carbamoyl)-5,16-dioxo-1,2,3,5,6,7,8,9,10,11,13a,14,14a,15,16,16a-hexadecahydrocyclopropa[e]pyrrolo[1,2-a][1,4]diazacyclopentadecin-6-yl)carbamate] | 5.01 to 35 nM | 1.01 to 5 nM | –
7 | CCOc1cnc(O[C@@H]2C[C@H]3C(=O)N[C@]4(C(=O)NS(=O)(=O)C5(C)CC5)C[C@H]4/C=C\CC[C@@H](C)C[C@@H](COC)[C@H](NC(=O)OC(C)(C)C(F)(F)F)C(=O)N3C2)c2ccc(OC)cc12 [Compound 1066, 1,1,1-trifluoro-2-methylpropan-2-yl ((2R,6S,7R,9R,13aS,14aR,16aS,Z)-2-((4-ethoxy-6-methoxyisoquinolin-1-yl)oxy)-7-(methoxymethyl)-9-methyl-14a-(((1-methylcyclopropyl)sulfonyl)carbamoyl)-5,16-dioxo-1,2,3,5,6,7,8,9,10,11,13a,14,14a,15,16,16a-hexadecahydrocyclopropa[e]pyrrolo[1,2-a][1,4]diazacyclopentadecin-6-yl)carbamate] | – | 0.1 to 0.5 nM | –
8 | CCOc1cnc(O[C@@H]2C[C@H]3C(=O)N[C@]4(C(=O)NS(=O)(=O)C5(C)CC5)C[C@H]4/C=C\CC[C@H](C)C[C@@H](COC)[C@H](NC(=O)OC(C)(C)C(C)(F)F)C(=O)N3C2)c2ccc(OC)cc12 [Compound 1067, 3,3-difluoro-2-methylbutan-2-yl ((2R,6S,7R,9S,13aS,14aR,16aS,Z)-2-((4-ethoxy-6-methoxyisoquinolin-1-yl)oxy)-7-(methoxymethyl)-9-methyl-14a-(((1-methylcyclopropyl)sulfonyl)carbamoyl)-5,16-dioxo-1,2,3,5,6,7,8,9,10,11,13a,14,14a,15,16,16a-hexadecahydrocyclopropa[e]pyrrolo[1,2-a][1,4]diazacyclopentadecin-6-yl)carbamate] | – | – | 0.5 nM
9 | CCOc1cnc(O[C@@H]2C[C@H]3C(=O)N[C@]4(C(=O)NS(=O)(=O)C5(C)CC5)C[C@H]4/C=C\CC[C@@H](C)C[C@@H](COC)[C@H](NC(=O)OC(C)(C)C(C)(F)F)C(=O)N3C2)c2ccc(OC)cc12 [Compound 1068, 3,3-difluoro-2-methylbutan-2-yl ((2R,6S,7R,9R,13aS,14aR,16aS,Z)-2-((4-ethoxy-6-methoxyisoquinolin-1-yl)oxy)-7-(methoxymethyl)-9-methyl-14a-(((1-methylcyclopropyl)sulfonyl)carbamoyl)-5,16-dioxo-1,2,3,5,6,7,8,9,10,11,13a,14,14a,15,16,16a-hexadecahydrocyclopropa[e]pyrrolo[1,2-a][1,4]diazacyclopentadecin-6-yl)carbamate] | – | 0.1 to 0.5 nM | –
